Measured values from US9260417B2, “Therapeutic methods and compositions involving allosteric kinase inhibition” (AMITECH THERAPEUTIC SOLUTIONS, INC., priority 2010, dated 2016).

Key:
VSMCs = assay: XTT viability assay in VSMCs; assay type: cell-based, human; details: 72 h, full growth medium containing 10% FBS; read-out: EC50, VSMC viability
Description: FIG. 1A-1F illustrate molecular modeling and assay screening to compounds for dual targeting of PDGFRβ and RAF. (FIG. 1A) Molecular modeling of the amino-triazole based small molecules in PDGFRβ and RAF, respectively. […] A homology model of PDGFRβ was created with a structurally-related family member (VEGFR2, PDB 1y6b). […] To autophosphorylation, immunoblots were carried out with a phospho-tyrosine antibody. Membranes were stripped and reprobed for total PDGFRβ levels. […] (FIG. 1D) Structure activity relationships of the amino-triazole based small molecules comparing both PDGFRβ and B-RAF. […] Curves represent the average of 3 separate experiments, error bars represent ±SEM.
For XTT assays, cells were grown in 96-well plates overnight and all assays were conducted in growth medium will full serum and additives. […] Dose-response curves were plotted using GraphPad Prism software and EC50s were calculated using this program.

FLT3 D835Y = FLT3 D835Y (Homo sapiens (Human), UniProt P36888, D835Y); assay: In vitro kinase panel (SelectScreen); assay type: biochemical
Description: (§2) In vitro kinase screen and competitive binding assay. […] 11-point Kd curves were determined for hits identified during the initial screen.

[1] = molecular target: B-RAF/C-RAF heterodimerization (Homo sapiens (Human), UniProt P15056); assay: B-RAF/C-RAF heterodimerization in HUVECs (immunoprecipitation/Western); assay type: cell-based; details: ECs stimulated with bFGF or VEGF
FGFR4 = FGFR4 (Homo sapiens (Human), UniProt P22455); assay: In vitro kinase panel (SelectScreen); assay type: biochemical
Excerpt: (§1) In vitro kinase screen and competitive binding assay. Sorafenib as well as test compounds were submitted to Invitrogen and screened using their SelectScreen™ Profiling Service.

PDGFR beta = PDGFR beta (Homo sapiens (Human), UniProt P09619); assay: In vitro kinase panel (SelectScreen); assay type: biochemical
Excerpt: as §1

PKC iota = PKC iota (Homo sapiens (Human), UniProt P41743); assay: In vitro kinase panel (SelectScreen); assay type: biochemical
Excerpt: as §1

FLT1 (VEGFR1) = FLT1 (VEGFR1) (Homo sapiens (Human), UniProt P17948); assay: In vitro kinase panel (SelectScreen); assay type: biochemical
Excerpt: as §1

CDK2 = CDK2 (Homo sapiens (Human), UniProt P24941); assay: In vitro kinase panel (SelectScreen); assay type: biochemical
Excerpt: as §1

JNK1 = JNK1 (Homo sapiens (Human), UniProt P45983); assay: In vitro kinase panel (SelectScreen); assay type: biochemical
Excerpt: as §1

PDGFRA = PDGFRA (Homo sapiens (Human), UniProt P16234); assay: KINOMEscan competitive binding assay
Description: (§3) In vitro kinase screen and competitive binding assay. […] For the competitive binding assay, test compounds were screened at 10 μM against 70 diverse kinase targets for competitive binding using the KINOMEscan™ technology (Ambit Biosciences) (Karaman, et al. (2008) Nature biotechnology 26:127-132). 11-point Kd curves were determined for hits identified during the initial screen.

FLT3 = FLT3 (Homo sapiens (Human), UniProt P36888); assay: In vitro kinase panel (SelectScreen); assay type: biochemical
Description: as §2

[2] = tested on: Tg(fli1:EGFP) zebrafish embryos; assay: Zebrafish angiogenesis model; details: for blood vessel formation in zebrafish embryos: treated 20-48 hpf, 1 μM 6 or SU5416, up to 10 μM 3; for effect on established intersegmental vessels: compound added at 30 hpf, […] 6, 1 μM sorafenib; for viability of zebrafish embryos: treatment at 48-72 hpf
Description: Embryos were treated with 1 μM 6 or SU5416, or 10 μM 3 from 20 hours post fertilization (hpf) until 48 hpf. Representative 3D reconstructions of the blood vasculature are shown for both the head and tail regions of the embryo. Designations for the major vessels in the head and tail of the zebrafish embryo at 48 hpf are available in FIG. 8A. (FIG. 3B) Disruption of lumen formation in the zebrafish during late vessel maturation. Zebrafish treated with either 1 μM 6 or 10 μM 3 from 20-48 hpf were imaged at 35 and 48 hpf. […] Shown is 3D overlap reconstruction of the GFP expressing intersegmental vessels with TUNEL-positive nuclei at 48 hpf (shown in red). Representative phase contrast views as well as quantification of intersegmental vessel volumes from FIG. 3A and FIG. 3B can be found in FIG. 8B-D, respectively. (FIG. 3C) Time course of drug addition to zebrafish. […] At 30 hpf the zebrafish embryos established early vessels with evident lumens. […] All scale bars=100 μm.
Z-stacks from laser scanning confocal microscopy are shown depicting formation of the intersegmental vessels at 48 hpf. n=6 embryos/treatment. (FIG. 4B) HUVECs were co-cultured with hTERT-human hepatic stellate cells in a 3-D collagen matrix in the presence of complete EBM-2 medium to monitor pericyte-associated endothelial tube formation. […] The endothelial tubes were stained at 24 h by adding 2 μl FITC labeled Ulex europaeus lectin (Vector labs) per well. Images were acquired 48 h post seeding of the cells. One representative panel from 3 independent experiments is shown. Green—FITC lectin labeled endothelial cells, Red—DiIC(3) labeled stellate cells. […] Scale bar=200 μm. (FIG. 4C) Tube lengths were measured using Metamorph software for each tube for all 10 fields that were acquired. The % pericyte-covered tube length was calculated from the ratio of tube length sums for the tubes with and without pericyte contact. Error bars are reported as ±SEM of two wells per group. *indicates p<0.05 compared to DMSO group.
Zebrafish studies. Transgenic Tg(fli1:EGFP) zebrafish embryos were purchased from www.zfin.org and reported elsewhere (Lawson, et al. (2002) Dev Biol 248:307-318) and maintained according to (“Zebrafish—A Practical Approach”, Oxford University Press, 2002). Compounds in DMSO stock solutions were diluted directly into the water and vessels were imaged for GFP expression using a Nikon c1-si confocal microscope. Apoptosis was measured by TUNEL staining using the Apoptag in situ Red Fluorescence Kit (Chemicon) with a protocol described previously (Stanton, et al. (2006) The Journal of biological chemistry 281:28782-28793).

KDR (VEGFR2) = KDR (VEGFR2) (Homo sapiens (Human), UniProt P35968); assay: In vitro kinase panel (SelectScreen); assay type: biochemical
Description: as §2

EGFR L861Q = EGFR L861Q (Homo sapiens (Human), UniProt P00533, L861Q); assay: In vitro kinase panel (SelectScreen); assay type: biochemical
Description: as §2

PDGFRB = PDGFRB (Homo sapiens (Human), UniProt P09619); assay: KINOMEscan competitive binding assay
Description: as §3

EGFR = EGFR (Homo sapiens (Human), UniProt P00533); assay: In vitro kinase panel (SelectScreen); assay type: biochemical
Description: as §2

CRAF S338 = CRAF S338 (Mus musculus (Mouse), UniProt Q99N57); assay: CRAF S338 phosphorylation in R40P cells (Western); assay type: cell-based; details: 12 h, sorafenib 5 μM, compound 6 5, 2.5, 1.25 μM
Description: R40P cells are derived from a spontaneous pancreatic adenocarcinoma mouse model which expresses K-ras^G12D while p16/Ink4a/ARF is lost. […] At this time the cells were lysed and protein levels were quantified by BCA analysis. The lysates were then loaded on an SDS-PAGE gel and transferred to nitrocellulose for Western blotting. Immunoblotting was performed with the following antibodies: pMEK1/2 S217/S221 (Cell Signaling), pCRAF S338 (Cell Signaling), and total CRAF (BD Biosciences). Chemilluminescence was used for detection on film.

Sequence of FGFR4 (P22455 22-802): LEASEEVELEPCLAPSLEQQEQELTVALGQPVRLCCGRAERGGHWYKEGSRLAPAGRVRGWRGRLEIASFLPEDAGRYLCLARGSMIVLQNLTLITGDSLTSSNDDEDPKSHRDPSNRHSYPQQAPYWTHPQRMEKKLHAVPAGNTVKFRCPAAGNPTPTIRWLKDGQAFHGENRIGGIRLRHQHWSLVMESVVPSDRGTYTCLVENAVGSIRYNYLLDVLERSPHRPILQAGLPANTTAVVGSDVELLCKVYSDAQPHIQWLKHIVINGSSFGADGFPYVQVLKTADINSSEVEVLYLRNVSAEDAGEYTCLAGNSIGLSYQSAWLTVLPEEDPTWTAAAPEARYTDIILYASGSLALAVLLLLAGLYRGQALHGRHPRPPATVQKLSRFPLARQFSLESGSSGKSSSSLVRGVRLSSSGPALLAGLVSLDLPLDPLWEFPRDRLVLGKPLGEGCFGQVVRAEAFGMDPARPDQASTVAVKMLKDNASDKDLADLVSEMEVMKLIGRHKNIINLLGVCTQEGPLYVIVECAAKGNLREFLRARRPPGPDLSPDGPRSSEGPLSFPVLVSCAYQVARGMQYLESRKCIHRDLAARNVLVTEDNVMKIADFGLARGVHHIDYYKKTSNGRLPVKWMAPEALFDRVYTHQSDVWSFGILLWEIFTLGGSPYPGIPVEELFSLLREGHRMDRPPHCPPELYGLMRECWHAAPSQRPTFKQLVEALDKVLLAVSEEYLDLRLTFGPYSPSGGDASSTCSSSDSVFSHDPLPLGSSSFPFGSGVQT
Sequence of JNK1 (P45983 whole entry): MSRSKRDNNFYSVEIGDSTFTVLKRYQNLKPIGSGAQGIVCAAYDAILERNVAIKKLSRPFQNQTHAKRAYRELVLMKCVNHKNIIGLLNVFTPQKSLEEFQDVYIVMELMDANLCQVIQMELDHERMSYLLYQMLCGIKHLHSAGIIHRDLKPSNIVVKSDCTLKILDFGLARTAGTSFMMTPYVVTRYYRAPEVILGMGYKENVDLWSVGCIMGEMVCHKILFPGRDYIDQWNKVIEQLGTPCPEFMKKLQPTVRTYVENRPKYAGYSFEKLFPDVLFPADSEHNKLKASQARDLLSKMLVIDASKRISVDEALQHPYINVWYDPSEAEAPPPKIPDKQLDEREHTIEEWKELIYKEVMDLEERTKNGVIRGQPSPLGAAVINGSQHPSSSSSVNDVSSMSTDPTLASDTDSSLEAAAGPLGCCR
Sequence of PKC iota (P41743 whole entry): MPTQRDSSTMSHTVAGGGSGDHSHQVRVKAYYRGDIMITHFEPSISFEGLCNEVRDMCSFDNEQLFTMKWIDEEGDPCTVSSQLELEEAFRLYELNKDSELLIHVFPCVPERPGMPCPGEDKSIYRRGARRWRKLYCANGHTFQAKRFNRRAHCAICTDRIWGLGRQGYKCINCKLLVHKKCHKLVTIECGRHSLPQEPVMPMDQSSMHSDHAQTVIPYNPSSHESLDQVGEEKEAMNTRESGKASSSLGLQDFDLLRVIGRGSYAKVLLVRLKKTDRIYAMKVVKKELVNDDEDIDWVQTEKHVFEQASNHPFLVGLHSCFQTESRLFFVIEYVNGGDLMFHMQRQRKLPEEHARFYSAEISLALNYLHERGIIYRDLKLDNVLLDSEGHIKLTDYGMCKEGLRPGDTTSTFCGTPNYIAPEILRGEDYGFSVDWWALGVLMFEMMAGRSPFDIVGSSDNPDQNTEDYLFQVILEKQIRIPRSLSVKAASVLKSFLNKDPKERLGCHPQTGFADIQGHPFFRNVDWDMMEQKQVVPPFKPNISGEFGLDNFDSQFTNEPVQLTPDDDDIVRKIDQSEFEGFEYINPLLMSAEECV
Sequence of PDGFR beta (P09619 33-1106): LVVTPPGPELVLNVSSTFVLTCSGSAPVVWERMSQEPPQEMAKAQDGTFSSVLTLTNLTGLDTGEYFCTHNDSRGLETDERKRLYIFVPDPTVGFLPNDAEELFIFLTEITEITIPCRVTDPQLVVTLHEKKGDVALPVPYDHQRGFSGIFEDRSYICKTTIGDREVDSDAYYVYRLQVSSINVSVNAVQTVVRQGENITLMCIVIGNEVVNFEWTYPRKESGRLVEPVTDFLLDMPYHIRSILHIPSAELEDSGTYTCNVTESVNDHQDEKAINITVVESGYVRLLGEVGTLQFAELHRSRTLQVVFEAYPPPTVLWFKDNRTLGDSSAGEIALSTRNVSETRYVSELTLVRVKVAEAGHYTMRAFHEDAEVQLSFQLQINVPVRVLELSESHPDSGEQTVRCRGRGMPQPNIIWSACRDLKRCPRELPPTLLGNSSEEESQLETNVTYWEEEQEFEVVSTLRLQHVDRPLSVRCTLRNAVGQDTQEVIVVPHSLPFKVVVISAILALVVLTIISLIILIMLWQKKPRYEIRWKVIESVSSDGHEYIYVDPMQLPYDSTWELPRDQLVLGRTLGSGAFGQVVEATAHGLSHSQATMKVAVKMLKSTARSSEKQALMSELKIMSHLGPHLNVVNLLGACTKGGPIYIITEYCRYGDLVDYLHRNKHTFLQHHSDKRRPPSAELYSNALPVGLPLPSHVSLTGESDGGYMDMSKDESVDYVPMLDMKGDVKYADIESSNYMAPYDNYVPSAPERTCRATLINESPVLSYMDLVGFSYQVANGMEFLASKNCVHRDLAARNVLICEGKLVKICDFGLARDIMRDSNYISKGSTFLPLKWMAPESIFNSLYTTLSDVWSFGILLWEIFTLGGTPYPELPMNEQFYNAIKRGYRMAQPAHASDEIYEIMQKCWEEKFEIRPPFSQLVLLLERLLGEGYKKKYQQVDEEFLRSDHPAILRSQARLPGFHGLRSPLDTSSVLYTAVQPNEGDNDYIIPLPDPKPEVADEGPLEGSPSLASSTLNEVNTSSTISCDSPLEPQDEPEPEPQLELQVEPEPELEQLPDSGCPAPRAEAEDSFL
Sequence of FLT1 (VEGFR1) (P17948 27-1338): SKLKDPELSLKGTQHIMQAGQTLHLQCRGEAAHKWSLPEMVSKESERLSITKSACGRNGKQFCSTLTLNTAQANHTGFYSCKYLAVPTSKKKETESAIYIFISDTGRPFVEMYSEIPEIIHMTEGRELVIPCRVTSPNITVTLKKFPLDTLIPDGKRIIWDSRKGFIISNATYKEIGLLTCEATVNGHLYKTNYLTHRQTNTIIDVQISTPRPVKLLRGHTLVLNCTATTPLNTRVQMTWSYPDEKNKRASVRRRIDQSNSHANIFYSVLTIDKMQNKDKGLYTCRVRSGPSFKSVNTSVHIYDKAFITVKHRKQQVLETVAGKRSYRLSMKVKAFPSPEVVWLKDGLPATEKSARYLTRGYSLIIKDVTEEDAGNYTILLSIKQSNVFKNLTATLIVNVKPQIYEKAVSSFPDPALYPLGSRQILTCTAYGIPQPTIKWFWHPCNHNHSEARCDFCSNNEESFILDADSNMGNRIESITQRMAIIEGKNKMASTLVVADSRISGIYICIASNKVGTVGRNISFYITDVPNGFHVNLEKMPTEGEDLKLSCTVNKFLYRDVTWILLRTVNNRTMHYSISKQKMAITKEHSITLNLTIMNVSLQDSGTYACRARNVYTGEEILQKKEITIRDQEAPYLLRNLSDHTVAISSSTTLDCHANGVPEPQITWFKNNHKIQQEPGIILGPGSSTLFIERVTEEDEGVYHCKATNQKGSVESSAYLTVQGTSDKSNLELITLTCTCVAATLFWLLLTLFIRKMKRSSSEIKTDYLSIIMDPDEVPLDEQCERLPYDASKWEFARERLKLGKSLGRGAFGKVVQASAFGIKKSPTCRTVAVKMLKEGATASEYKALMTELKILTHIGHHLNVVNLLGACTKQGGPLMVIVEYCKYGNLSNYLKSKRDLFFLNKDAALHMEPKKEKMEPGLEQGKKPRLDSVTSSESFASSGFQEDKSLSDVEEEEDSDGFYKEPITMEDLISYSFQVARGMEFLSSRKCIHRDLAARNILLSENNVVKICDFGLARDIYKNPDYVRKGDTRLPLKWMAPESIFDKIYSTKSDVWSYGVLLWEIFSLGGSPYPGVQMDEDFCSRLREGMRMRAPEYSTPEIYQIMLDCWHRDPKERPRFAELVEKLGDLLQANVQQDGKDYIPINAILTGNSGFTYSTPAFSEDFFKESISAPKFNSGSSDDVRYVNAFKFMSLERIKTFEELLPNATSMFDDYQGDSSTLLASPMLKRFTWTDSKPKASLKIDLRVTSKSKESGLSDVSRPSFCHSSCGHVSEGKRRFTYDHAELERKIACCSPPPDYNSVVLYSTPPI
Sequence of PDGFRB (P09619 33-1106): as the sequence (P09619 33-1106) above
Sequence of B-RAF/C-RAF heterodimerization (P15056 whole entry, one chain of several): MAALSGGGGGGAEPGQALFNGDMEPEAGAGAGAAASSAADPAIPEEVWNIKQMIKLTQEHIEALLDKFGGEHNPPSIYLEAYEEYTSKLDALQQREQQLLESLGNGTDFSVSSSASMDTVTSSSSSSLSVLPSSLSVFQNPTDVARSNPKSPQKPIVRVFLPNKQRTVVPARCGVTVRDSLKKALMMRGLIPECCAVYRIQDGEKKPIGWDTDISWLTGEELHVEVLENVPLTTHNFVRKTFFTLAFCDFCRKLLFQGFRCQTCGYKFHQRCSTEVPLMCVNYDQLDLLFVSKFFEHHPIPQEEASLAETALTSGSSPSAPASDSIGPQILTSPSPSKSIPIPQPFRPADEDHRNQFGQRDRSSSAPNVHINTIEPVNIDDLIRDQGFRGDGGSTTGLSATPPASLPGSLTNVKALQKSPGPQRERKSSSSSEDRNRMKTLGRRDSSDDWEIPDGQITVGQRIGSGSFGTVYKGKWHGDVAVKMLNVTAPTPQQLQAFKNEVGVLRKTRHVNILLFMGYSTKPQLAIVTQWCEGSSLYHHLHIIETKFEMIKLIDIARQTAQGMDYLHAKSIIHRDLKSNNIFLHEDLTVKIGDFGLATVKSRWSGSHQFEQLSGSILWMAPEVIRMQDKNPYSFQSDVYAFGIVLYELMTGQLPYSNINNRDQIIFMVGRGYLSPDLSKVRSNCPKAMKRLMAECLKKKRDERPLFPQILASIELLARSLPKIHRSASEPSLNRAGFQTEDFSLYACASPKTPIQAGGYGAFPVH

| SMILES | EC50 (VSMCs) [µM] | % Inhibition at 10 μM (FLT3 D835Y) [%] | B-RAF/C-RAF heterodimer formation [1] | % Inhibition at 10 μM (FGFR4) [%] | % Inhibition at 10 μM (PDGFR beta) [%] | % Inhibition at 10 μM (PKC iota) [%] | % Inhibition at 10 μM (FLT1 (VEGFR1)) [%] | % Inhibition at 10 μM (CDK2) [%] | % Inhibition at 10 μM (JNK1) [%] | % Inhibition at 10 μM (FLT3) [%] | blood vessel formation in zebrafish embryos [2] | % Inhibition at 10 μM (KDR (VEGFR2)) [%] | % Inhibition at 10 μM (EGFR L861Q) [%] | % Inhibition at 10 μM (EGFR) [%] | effect on established intersegmental vessels [2] | viability of zebrafish embryos [2] | phosphorylation on CRAF S338 (CRAF S338) | further results |
| --- | --- | --- | --- | --- | --- | --- | --- | --- | --- | --- | --- | --- | --- | --- | --- | --- | --- | --- |
| Nc1cc(Oc2ccc(-c3nnc(Nc4cccc(C(F)(F)F)c4)[nH]3)cc2)ncn1 [Compound 3] | 15 | 29 | had no effect | −6 | 35 | −2 | 5 | 2 | −5 | −4 | had no effect | 31 | −1 | −2 | – | – | – | Kd (PDGFRA; PDGFRα): 32 nM; Kd (PDGFRB; PDGFRβ): 40 nM |
| CSc1nc(N)cc(Oc2ccc(-c3nnc(Nc4cccc(C(F)(F)F)c4)[nH]3)cc2)n1 [Compound 6] | 0.59 | 9 | completely inhibited | −7 | 20 | 0 | −2 | 2 | −3 | −2 | failed to form mature intersegmental vessels | 16 | −4 | −3 | did not suppress the vascular growth and patterning | all viable | does not promote this increase | % Control (PDGFRA; 10 uM, PDGFRA): 0.25%; % Control (PDGFRB; 10 uM, PDGFRB): 0.5% |
| CNC(=O)c1cc(Oc2ccc(NC(=O)Nc3ccc(Cl)c(C(F)(F)F)c3)cc2)ccn1 [sorafenib, reference compound] | – | – | – | – | – | – | – | – | – | – | – | – | – | – | disrupted mature intersegmental blood vessels | induced death in all animals tested | induces an increase | inhibition at 10 µM (FLT3 D835Y): 72%; inhibition at 10 µM (FGFR4): 7%; inhibition at 10 µM (PDGFR beta): 93%; inhibition at 10 µM (PKC iota): -2%; inhibition at 10 µM (FLT1 (VEGFR1)): 93%; inhibition at 10 µM (CDK2): 2%; inhibition at 10 µM (JNK1): -2%; inhibition at 10 µM (FLT3): 9% |
